The source of these data is patent US11713338B2, “Cyclic peptides multimers targeting α-4-β-7 integrin” (priority 2016, dated 2023).

Each structure is given as a SMILES string.

Assay [1] has as its target T1, recombinant integrin α4β7 (Homo sapiens, UniProt P13612+P26010, DEL724-798).
T1 construct: purchased R&D Systems 5397-A3-050
T1 sequence (P13612 34-970 limits assumed): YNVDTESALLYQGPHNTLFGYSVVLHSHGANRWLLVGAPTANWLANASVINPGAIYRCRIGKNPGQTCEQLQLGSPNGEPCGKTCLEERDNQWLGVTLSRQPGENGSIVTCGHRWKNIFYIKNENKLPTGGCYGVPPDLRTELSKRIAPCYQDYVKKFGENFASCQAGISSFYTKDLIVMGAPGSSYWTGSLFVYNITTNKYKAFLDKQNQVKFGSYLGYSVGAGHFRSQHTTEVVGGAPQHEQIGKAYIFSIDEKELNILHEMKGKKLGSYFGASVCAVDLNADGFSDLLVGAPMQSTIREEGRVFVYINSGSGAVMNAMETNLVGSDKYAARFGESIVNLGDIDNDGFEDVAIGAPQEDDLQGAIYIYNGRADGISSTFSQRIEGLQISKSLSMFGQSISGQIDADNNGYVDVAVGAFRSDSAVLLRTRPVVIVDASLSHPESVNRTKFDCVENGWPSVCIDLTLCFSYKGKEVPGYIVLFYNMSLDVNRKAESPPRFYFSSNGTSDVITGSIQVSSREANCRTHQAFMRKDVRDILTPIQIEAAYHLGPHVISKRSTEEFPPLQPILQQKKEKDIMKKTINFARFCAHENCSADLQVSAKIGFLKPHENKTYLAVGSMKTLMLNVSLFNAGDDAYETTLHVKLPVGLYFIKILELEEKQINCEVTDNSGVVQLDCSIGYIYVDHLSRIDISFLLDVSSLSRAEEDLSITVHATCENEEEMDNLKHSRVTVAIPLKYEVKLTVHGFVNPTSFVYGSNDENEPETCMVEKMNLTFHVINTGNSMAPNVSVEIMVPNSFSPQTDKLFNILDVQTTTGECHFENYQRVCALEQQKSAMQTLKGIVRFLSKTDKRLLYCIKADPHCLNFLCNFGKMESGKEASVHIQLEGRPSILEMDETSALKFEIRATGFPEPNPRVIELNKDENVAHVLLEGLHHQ
T1 sequence (P26010 20-723 limits assumed): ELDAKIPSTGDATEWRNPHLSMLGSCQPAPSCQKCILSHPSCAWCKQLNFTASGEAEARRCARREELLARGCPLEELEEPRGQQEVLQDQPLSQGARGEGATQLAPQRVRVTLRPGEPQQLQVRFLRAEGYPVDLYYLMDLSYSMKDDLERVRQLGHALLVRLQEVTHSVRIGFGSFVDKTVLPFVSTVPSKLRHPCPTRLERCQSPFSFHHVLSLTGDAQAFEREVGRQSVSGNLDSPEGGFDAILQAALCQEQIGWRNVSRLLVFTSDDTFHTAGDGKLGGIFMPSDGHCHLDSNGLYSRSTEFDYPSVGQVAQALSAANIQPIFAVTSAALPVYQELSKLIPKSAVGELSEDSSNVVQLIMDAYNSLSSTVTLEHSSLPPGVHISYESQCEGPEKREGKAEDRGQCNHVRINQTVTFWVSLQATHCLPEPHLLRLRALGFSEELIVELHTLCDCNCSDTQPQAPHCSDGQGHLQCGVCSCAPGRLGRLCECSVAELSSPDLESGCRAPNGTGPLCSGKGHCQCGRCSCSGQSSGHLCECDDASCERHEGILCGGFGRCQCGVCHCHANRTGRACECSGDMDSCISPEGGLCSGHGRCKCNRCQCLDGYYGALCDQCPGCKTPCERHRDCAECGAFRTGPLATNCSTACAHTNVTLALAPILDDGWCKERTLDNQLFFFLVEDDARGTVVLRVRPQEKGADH
Briefly: Integrin α4β7—MAdCAM-1 ELISA competition assay. Format: binding. The conditions noted are these: read-out: ELISA α4β7 Assay IC50. (In general: ELISA stands for enzyme-linked immunosorbent assay.)

Assay [2] concerns the target T2, integrin α4β1 (RAMOS human cells adhering to VCAM-1) (Homo sapiens, UniProt P05556+P13612).
T2 construct: Ramos cells, which express integrin α4β1; host or cells: RAMOS
Briefly: Integrin α4β1-VCAM cell adhesion assay (RAMOS cells). Conditions: for IC50: Ramos cells adhering to VCAM, read-out: Ramos Adhesion α4β1/VCAM IC50; for Ratio Ramos/RPMI: ratio of cell adhesion IC50s, Ramos α4β1/VCAM over RPMI8866 α4β7/MAdCAM. The assay is classed as cell-based. The method, boiled down: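 Human RAMOS cells loaded with calcein ([…] in PBS, 37° C, 30 min) allowed to adhere to VCAM-1-coated wells blocked with 1% milk. After PBS washes, adherent-cell fluorescence measured and cell-free well background subtracted to build dose-response.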

The target in assay [3] is T3, recombinant integrin α4β1 (Homo sapiens, UniProt P05556+P13612).
T3 construct: purchased R&D Systems 5397-A3-050
Briefly: Integrin α4β1—VCAM-1 competition ELISA. Conditions: for ELISA Assay Ratio β1/β7: ratio of ELISA IC50s, α4β1 over α4β7; for IC50: read-out: ELISA α4β1 Assay IC50. Format: binding. The method, boiled down: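 Detection of bound ligand used HRP-conjugated anti-human IgG Fc, 1 h with agitation at room temperature. This followed a 2 h room-temperature, 300 rpm equilibration of compound in the coated wells. Washes were done in 50 mM Tris, 100 mM NaCl, 1 mM MnCl2, 0.05% Tween.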

T3 sequence (P05556 21-728 limits assumed, one chain of several): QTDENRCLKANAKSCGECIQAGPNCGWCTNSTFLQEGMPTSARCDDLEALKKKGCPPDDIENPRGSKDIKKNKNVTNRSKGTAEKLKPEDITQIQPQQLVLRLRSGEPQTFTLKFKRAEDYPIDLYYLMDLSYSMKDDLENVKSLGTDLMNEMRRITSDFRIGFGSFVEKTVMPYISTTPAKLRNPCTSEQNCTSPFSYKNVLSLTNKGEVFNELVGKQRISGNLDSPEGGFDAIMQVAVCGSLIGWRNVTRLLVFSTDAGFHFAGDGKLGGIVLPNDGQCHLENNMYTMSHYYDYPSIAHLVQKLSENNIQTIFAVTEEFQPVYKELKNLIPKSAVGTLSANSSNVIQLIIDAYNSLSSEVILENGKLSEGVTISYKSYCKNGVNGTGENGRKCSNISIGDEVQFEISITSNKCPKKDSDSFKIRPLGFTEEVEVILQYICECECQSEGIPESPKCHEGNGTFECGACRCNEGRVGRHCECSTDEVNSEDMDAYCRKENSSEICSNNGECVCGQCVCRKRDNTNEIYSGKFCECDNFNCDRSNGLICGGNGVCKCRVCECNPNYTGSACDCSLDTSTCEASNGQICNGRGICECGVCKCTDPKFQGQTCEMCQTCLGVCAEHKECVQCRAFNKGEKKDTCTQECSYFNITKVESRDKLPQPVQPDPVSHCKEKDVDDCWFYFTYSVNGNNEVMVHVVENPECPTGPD
T2 sequence (P13612 34-1032): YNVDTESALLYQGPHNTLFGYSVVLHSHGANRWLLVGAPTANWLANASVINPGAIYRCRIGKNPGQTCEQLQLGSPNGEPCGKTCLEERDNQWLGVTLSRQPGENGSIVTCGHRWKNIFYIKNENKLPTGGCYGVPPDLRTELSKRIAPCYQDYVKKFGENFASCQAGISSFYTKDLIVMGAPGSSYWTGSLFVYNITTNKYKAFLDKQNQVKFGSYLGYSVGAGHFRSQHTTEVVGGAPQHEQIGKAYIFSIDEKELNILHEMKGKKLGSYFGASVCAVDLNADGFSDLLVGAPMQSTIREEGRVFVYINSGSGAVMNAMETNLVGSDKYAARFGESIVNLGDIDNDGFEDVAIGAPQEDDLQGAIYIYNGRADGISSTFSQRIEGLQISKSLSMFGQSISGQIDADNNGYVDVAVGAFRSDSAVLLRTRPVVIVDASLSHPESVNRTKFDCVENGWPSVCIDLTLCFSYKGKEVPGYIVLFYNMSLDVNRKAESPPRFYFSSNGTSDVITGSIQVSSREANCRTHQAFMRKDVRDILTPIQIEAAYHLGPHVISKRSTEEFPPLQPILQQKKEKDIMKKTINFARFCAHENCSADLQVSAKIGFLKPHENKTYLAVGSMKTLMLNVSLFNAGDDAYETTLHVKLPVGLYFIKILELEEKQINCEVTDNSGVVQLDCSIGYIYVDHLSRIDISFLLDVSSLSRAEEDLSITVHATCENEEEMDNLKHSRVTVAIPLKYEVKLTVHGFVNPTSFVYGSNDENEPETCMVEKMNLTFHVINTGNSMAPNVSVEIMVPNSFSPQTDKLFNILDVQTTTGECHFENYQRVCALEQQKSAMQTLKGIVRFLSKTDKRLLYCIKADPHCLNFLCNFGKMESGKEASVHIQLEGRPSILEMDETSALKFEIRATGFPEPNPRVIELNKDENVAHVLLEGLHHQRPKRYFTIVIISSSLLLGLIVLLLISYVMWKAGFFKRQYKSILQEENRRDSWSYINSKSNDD
T2 sequence (P05556 21-798): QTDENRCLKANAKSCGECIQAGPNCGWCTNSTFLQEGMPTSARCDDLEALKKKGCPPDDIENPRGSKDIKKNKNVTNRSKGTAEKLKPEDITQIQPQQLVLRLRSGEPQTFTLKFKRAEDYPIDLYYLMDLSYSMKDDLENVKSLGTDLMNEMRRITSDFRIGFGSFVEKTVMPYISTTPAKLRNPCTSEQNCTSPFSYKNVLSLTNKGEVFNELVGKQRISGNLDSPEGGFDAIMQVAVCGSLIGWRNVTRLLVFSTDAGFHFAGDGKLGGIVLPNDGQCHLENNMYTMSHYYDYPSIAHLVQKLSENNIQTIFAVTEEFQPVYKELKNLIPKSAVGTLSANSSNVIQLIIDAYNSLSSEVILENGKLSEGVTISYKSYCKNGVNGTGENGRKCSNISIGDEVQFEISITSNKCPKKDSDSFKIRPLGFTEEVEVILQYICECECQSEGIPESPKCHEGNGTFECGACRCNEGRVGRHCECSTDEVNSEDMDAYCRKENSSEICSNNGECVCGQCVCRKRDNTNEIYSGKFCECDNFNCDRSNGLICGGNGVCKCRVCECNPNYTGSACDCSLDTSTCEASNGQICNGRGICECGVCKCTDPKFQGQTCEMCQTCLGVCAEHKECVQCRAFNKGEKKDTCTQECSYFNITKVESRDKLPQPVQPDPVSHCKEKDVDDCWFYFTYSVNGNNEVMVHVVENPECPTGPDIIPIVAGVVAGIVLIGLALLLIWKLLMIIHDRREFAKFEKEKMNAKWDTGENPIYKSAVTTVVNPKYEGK

On to `CC(C)C[C@@H]1NC(=O)c2ccc(-c3ccc(N4CCN(C(=O)C[C@@H](N)C(=O)N5CCN(c6ccc(-c7ccc8cc7CNC(=O)[C@@H]7CCCN7[C@H](C(=O)NC(C)(C)C)[C@H](C)NC(=O)[C@H]([C@@H](C)O)NC(=O)[C@H](CC(=O)O)NC(=O)[C@H](CC(C)C)NC8=O)cc6)CC5)CC4)cc3)c(c2)CNC(=O)[C@@H]2CCCN2[C@H](C(=O)NC(C)(C)C)[C@H](C)NC(=O)[C@H]([C@@H](C)O)NC(=O)[C@H](CC(=O)O)NC1=O` [Compound 493], for which, in assay [1], the IC50 came out at 12 nM. Also, in assay [2], the IC50 was 1250 nM and the “Ratio Ramos/RPMI” value was found to be 28. Further, in assay [3], the “ELISA Assay Ratio β1/β7” value is on record as 0.3 and the IC50 worked out at 3.5 nM.
For `CC(C)C[C@@H]1NC(=O)c2ccc(-c3ccc(N4CCN(C(=O)CC[C@H](N)C(=O)N5CCN(c6ccc(-c7ccc8cc7CNC(=O)[C@@H]7CCCN7[C@H](C(=O)NC(C)(C)C)[C@H](C)NC(=O)[C@H]([C@@H](C)O)NC(=O)[C@H](CC(=O)O)NC(=O)[C@H](CC(C)C)NC8=O)cc6)CC5)CC4)cc3)c(c2)CNC(=O)[C@@H]2CCCN2[C@H](C(=O)NC(C)(C)C)[C@H](C)NC(=O)[C@H]([C@@H](C)O)NC(=O)[C@H](CC(=O)O)NC1=O` [Compound 494] the same measures were 9.4 nM, 161 nM, 3, 0.2 and 1.9 nM.
Take `CC(C)C[C@@H]1NC(=O)c2ccc(-c3ccc(N4CCN(C(=O)[C@H](CCCCNC(=O)CCCCCC(=O)NCCCC[C@H](NC(=O)OCc5ccccc5)C(=O)N5CCN(c6ccc(-c7ccc8cc7CNC(=O)[C@@H]7CCCN7[C@H](C(=O)NC(C)(C)C)[C@H](C)NC(=O)[C@H]([C@@H](C)O)NC(=O)[C@H](CC(=O)O)NC(=O)[C@H](CC(C)C)NC8=O)cc6)CC5)NC(=O)OCc5ccccc5)CC4)cc3)c(c2)CNC(=O)[C@@H]2CCCN2[C@H](C(=O)NC(C)(C)C)[C@H](C)NC(=O)[C@H]([C@@H](C)O)NC(=O)[C@H](CC(=O)O)NC1=O` [Compound 498]: the results for the IC50 in assay [1], in assay [2] and in assay [3] were 12 nM, 1360 nM and 3 nM, respectively.
On to `CC(C)C[C@@H]1NC(=O)c2ccc(-c3ccc(N4CCN(Cc5cccc(CN6CCN(c7ccc(-c8ccc9cc8CNC(=O)[C@@H]8CCCN8[C@H](C(=O)NC(C)(C)C)[C@H](C)NC(=O)[C@H]([C@@H](C)O)NC(=O)[C@H](CC(=O)O)NC(=O)[C@H](CC(C)C)NC9=O)cc7)CC6)c5)CC4)cc3)c(c2)CNC(=O)[C@@H]2CCCN2[C@H](C(=O)NC(C)(C)C)[C@H](C)NC(=O)[C@H]([C@@H](C)O)NC(=O)[C@H](CC(=O)O)NC1=O` [Compound 499], for which the IC50 in assay [1] is 17 nM. In assay [2], the IC50 worked out at 878 nM and the “Ratio Ramos/RPMI” value came to 21. In addition, in assay [3], the “ELISA Assay Ratio β1/β7” value came to 0.2 and the IC50 was 3.1 nM.
On to `CC(C)C[C@@H]1NC(=O)c2ccc(-c3ccc(N4CCN(Cc5ccc(CN6CCN(c7ccc(-c8ccc9cc8CNC(=O)[C@@H]8CCCN8[C@H](C(=O)NC(C)(C)C)[C@H](C)NC(=O)[C@H]([C@@H](C)O)NC(=O)[C@H](CC(=O)O)NC(=O)[C@H](CC(C)C)NC9=O)cc7)CC6)cc5)CC4)cc3)c(c2)CNC(=O)[C@@H]2CCCN2[C@H](C(=O)NC(C)(C)C)[C@H](C)NC(=O)[C@H]([C@@H](C)O)NC(=O)[C@H](CC(=O)O)NC1=O` [Compound 500], for which the IC50 in assay [1] stood at 12 nM; in assay [2] it was 1000 nM; in assay [3], 9.9 nM. Also, the “Ratio Ramos/RPMI” value in assay [2] is given as 31. In assay [3], the “ELISA Assay Ratio β1/β7” value is listed as 0.8.
For `CC(C)C[C@@H]1NC(=O)c2ccc(-c3ccc(N4CCN(C(=O)CCOCCOCCNC(=O)CCCCCC(=O)NCCOCCOCCC(=O)N5CCN(c6ccc(-c7ccc8cc7CNC(=O)[C@@H]7CCCN7[C@H](C(=O)NC(C)(C)C)[C@H](C)NC(=O)[C@H]([C@@H](C)O)NC(=O)[C@H](CC(=O)O)NC(=O)[C@H](CC(C)C)NC8=O)cc6)CC5)CC4)cc3)c(c2)CNC(=O)[C@@H]2CCCN2[C@H](C(=O)NC(C)(C)C)[C@H](C)NC(=O)[C@H]([C@@H](C)O)NC(=O)[C@H](CC(=O)O)NC1=O` [Compound 505], in that order: 19 nM, 1780 nM, 6.6 nM, 30 and 0.3.
With `CC(C)C[C@@H]1NC(=O)c2ccc(-c3ccc(N4CCN(C(=O)CCOCCOCCOCCOCCOCCOCCOCCOCCOCCOCCC(=O)N5CCN(c6ccc(-c7ccc8cc7CNC(=O)[C@@H]7CCCN7[C@H](C(=O)NC(C)(C)C)[C@H](C)NC(=O)[C@H]([C@@H](C)O)NC(=O)[C@H](CC(=O)O)NC(=O)[C@H](CC(C)C)NC8=O)cc6)CC5)CC4)cc3)c(c2)CNC(=O)[C@@H]2CCCN2[C@H](C(=O)NC(C)(C)C)[C@H](C)NC(=O)[C@H]([C@@H](C)O)NC(=O)[C@H](CC(=O)O)NC1=O` [Compound 511], the IC50 in assay [1] turned out to be 11 nM. In assay [2], the IC50 came to 3990 nM and the “Ratio Ramos/RPMI” value was 133. In addition, in assay [3], the “ELISA Assay Ratio β1/β7” value was found to be 0.6 and the IC50 was found to be 7.2 nM.
As to `CC(C)C[C@@H]1NC(=O)c2ccc(-c3ccc(N4CCN(Cc5cc(CN6CCN(c7ccc(-c8ccc9cc8CNC(=O)[C@@H]8CCCN8[C@H](C(=O)NC(C)(C)C)[C@H](C)NC(=O)[C@H]([C@@H](C)O)NC(=O)[C@H](CC(=O)O)NC(=O)[C@H](CC(C)C)NC9=O)cc7)CC6)cc(CN6CCN(c7ccc(-c8ccc9cc8CNC(=O)[C@@H]8CCCN8[C@H](C(=O)NC(C)(C)C)[C@H](C)NC(=O)[C@H]([C@@H](C)O)NC(=O)[C@H](CC(=O)O)NC(=O)[C@H](CC(C)C)NC9=O)cc7)CC6)c5)CC4)cc3)c(c2)CNC(=O)[C@@H]2CCCN2[C@H](C(=O)NC(C)(C)C)[C@H](C)NC(=O)[C@H]([C@@H](C)O)NC(=O)[C@H](CC(=O)O)NC1=O` [Compound 518], the IC50 in assay [1] was found to be 36 nM; in assay [2] it was 947 nM; in assay [3], 8.7 nM.
In the case of `CC(C)C[C@@H]1NC(=O)C[C@H](CCCCN)N(C)C(=O)[C@H](CCCCNC(=O)CCCCCCCCC(=O)NCCCC[C@@H]2NC(=O)[C@@H]3CCCN3[C@H](C(=O)NC(C)(C)C)[C@H](C)NC(=O)[C@H]([C@@H](C)O)NC(=O)[C@H](CC(=O)O)NC(=O)[C@H](CC(C)C)NC(=O)C[C@H](CCCCN)N(C)C2=O)NC(=O)[C@@H]2CCCN2[C@H](C(=O)NC(C)(C)C)[C@H](C)NC(=O)[C@H]([C@@H](C)O)NC(=O)[C@H](CC(=O)O)NC1=O` [Compound 530], the IC50 in assay [1] came out at 5.3 nM; in assay [2], 10600 nM; in assay [3] it was 5.1 nM. In addition, in assay [2], the “Ratio Ramos/RPMI” value was 704. For the same compound, the “ELISA Assay Ratio β1/β7” value in assay [3] came to 1.0.
